Experimental data from patent US20230279020A9, “CARM1 INHIBITORS AND USES THEREOF” (Epizyme, Inc., priority 2013, published 2023).

Molecular target: Human CARM1 (PRMT4) (Homo sapiens (Human), UniProt Q86X55)
Assay: CARM1 enzyme assay on peptide substrate (3H-SAM Flashplate)
Settings: Biochemical potencies, classification codes; read-out: Biochem IC50

Sequence of Human CARM1 (PRMT4) (Q86X55 other isoform, or with tags, fused parts or gaps isoform Q86X55-1): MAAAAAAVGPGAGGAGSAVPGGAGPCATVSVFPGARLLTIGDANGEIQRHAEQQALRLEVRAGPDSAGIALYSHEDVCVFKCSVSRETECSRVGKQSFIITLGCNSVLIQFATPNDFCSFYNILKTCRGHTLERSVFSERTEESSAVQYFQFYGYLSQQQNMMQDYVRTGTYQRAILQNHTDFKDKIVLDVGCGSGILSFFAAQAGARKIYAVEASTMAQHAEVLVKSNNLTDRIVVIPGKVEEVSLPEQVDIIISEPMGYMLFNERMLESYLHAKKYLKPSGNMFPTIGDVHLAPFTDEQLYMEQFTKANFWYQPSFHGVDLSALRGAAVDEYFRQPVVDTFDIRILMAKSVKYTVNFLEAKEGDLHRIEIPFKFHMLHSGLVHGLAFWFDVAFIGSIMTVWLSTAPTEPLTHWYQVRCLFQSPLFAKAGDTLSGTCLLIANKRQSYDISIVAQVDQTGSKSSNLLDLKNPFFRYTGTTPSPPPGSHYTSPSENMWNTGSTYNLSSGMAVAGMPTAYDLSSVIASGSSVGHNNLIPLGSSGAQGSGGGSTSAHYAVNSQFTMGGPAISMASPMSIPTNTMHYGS

Structure (SMILES) | IC50
CNCC(O)COc1cccc(-c2nc(N(C)c3cncnc3)cc(N(C)C3CCOCC3)n2)c1 (stereo not shown) [Example 487-1a] | < 0.1 µM
CNC[C@@H](O)COc1cccc(-c2nc(-c3cn(S(C)(=O)=O)c4ncncc34)c(C)c(N(C)C3CCOCC3)n2)c1 [Example 488-1a] | < 0.1 µM
CNCC(O)COc1cc(OC)cc(-c2nc(-c3cnc4cnccn34)cc(N(C)C3CCOCC3)n2)c1 (stereo not shown) [Example 492-1a] | < 0.1 µM
CNCC(O)COc1cccc(-c2nc(-c3c(C)nn(C(C)C)c3C)cc(N(C)C3CCOCC3)n2)c1 (stereo not shown) [Example 496-1a] | < 0.1 µM
CNCC(O)COc1cccc(-c2nc(N3CCOCC3)c(F)c(N(C)C3CCOCC3)n2)c1 (stereo not shown) [Example 500-1a] | < 0.1 µM
CNCC(O)COc1cccc(-c2nc(N3CCN(C)[C@@H](C)C3)cc(N(C)C3CCOCC3)n2)c1 (stereo partly shown) [Example 502-1a] | < 0.1 µM
CC[C@H]1CN(c2cc(N(C)C3CCOCC3)nc(-c3cccc(OCC(O)CNC)c3)n2)CCN1 (stereo partly shown) [Example 505-1a] | < 0.1 µM
CNCC(O)COc1cc(Cl)cc(-c2nc(Nc3cncnc3)c(C)c(N(C)C3CCOCC3)n2)c1 (stereo not shown) [Example 506-1a] | < 0.1 µM
CNCC(O)COc1cc(Cl)cc(-c2nc(C(=O)NCC3CCOCC3)cc(N(C)C3CCOCC3)n2)c1 (stereo not shown) [Example 508-1a] | < 0.1 µM
CNC[C@@H](O)COc1cccc(-c2nc(-c3cn(S(C)(=O)=O)c4ncncc34)cc(N(C)C3CCOCC3)n2)c1 [Example 511-1a] | < 0.1 µM
CNCC(O)COc1cccc(-c2nc(-c3ccc(N4CCOCC4)nn3)cc(N(C)C3CCOCC3)n2)c1 (stereo not shown) [Example 512-1a] | < 0.1 µM
CNCC(O)COc1cccc(-c2nc(Nc3ncc(C)cn3)cc(N(C)C3CCOCC3)n2)c1 (stereo not shown) [Example 513-1a] | < 0.1 µM
CNCC(O)COc1cc(Cl)cc(-c2nc(-c3ccncc3C3CC3)cc(N(C)C3CCOCC3)n2)c1 (stereo not shown) [Example 522-1a] | < 0.1 µM
CNCC(O)COc1cccc(-c2nc(N3CCO[C@H](CN)C3)cc(N(C)C3CCOCC3)n2)c1 (stereo partly shown) [Example 524-1a] | < 0.1 µM
CNC[C@@H](O)COc1cccc(-c2nc(-c3c[nH]c4ncncc34)c(C)c(N(C)C3CCOCC3)n2)c1 [Example 526-1a] | < 0.1 µM
CNCC(O)COc1cccc(-c2nc(-c3c(C)nn(C)c3C)cc(N(C)C3CCOCC3)n2)c1 (stereo not shown) [Example 528-1a] | < 0.1 µM
CNCC(O)COc1cccc(-c2nc(N3CCN(C)CC3)cc(N(C)C3CCOCC3)n2)c1 (stereo not shown) [Example 531-1a] | < 0.1 µM
CNCC(O)COc1cccc(-c2nc(-c3ccncc3)c(C)c(N(C)C3CCOCC3)n2)c1 (stereo not shown) [Example 537-1a] | < 0.1 µM
CNCC(O)COc1cccc(-c2nc(N3CCC[C@H](O)C3)cc(N(C)C3CCOCC3)n2)c1 (stereo partly shown) [Example 538-1a] | < 0.1 µM
CNCC(O)COc1cccc(-c2nc(N(C)C3CCOCC3)cc(N3C[C@@H]4C[C@H]3CN4C)n2)c1 (stereo partly shown) [Example 543-1a] | < 0.1 µM
CNCC(O)COc1cccc(-c2nc(C(C)=O)c(C)c(N(C)C3CCOCC3)n2)c1 (stereo not shown) [Example 544-1a] | < 0.1 µM
CNCC(O)COc1cccc(-c2nc(C(=O)NCC3CCOCC3)cc(N(C)C3CCOCC3)n2)c1 (stereo not shown) [Example 548-1a] | < 0.1 µM
CNCC(O)COc1cccc(-c2nc(N3CCN(C)C(=O)C3)cc(N(C)C3CCOCC3)n2)c1 (stereo not shown) [Example 549-1a] | < 0.1 µM
CNCC(O)COc1cccc(-c2nc(N3CC4(CCNCC4)c4ccccc43)cc(N(C)C3CCOCC3)n2)c1 (stereo not shown) [Example 559-1a] | < 0.1 µM
CNCC(O)COc1cccc(-c2nc(N3CCNCC3)c(C)c(N(C)C3CCOCC3)n2)c1 (stereo not shown) [Example 560-1a] | < 0.1 µM
CNCC(O)COc1cc(Cl)cc(-c2nc(-c3cnc4ccccn34)c(C)c(N(C)C3CCOCC3)n2)c1 (stereo not shown) [Example 561-1a] | < 0.1 µM
CNCC(O)COc1cccc(-c2nc(N(C)C3CCOCC3)cc(N3C[C@H]4C[C@@H]3CN4)n2)c1 (stereo partly shown) [Example 562-1a] | < 0.1 µM
CNCC(O)COc1cccc(-c2nc(-c3cnc4n3CCNC4)cc(N(C)C3CCOCC3)n2)c1 (stereo not shown) [Example 563-1a] | < 0.1 µM
CCOC(=O)c1sc(-c2cc(N(C)C3CCOCC3)nc(-c3cccc(OCC(O)CNC)c3)n2)nc1C (stereo not shown) [Example 565-1a] | < 0.1 µM

Now from value to molecule:

IC50 | Structure (SMILES)
< 0.1 µM | CNCC(O)COc1cccc(-c2nc(-c3cnc4ncccn34)cc(N(C)C3CCOCC3)n2)c1 (stereo not shown) [Example 489-1a]
< 0.1 µM | CNCC(O)COc1cccc(-c2nc(-c3cnc4cnccn34)cc(N(C)C3CCOCC3)n2)c1 (stereo not shown) [Example 490-1a]
< 0.1 µM | CNCC(O)COc1cccc(-c2nc(-c3ncc(C)n3C)cc(N(C)C3CCOCC3)n2)c1 (stereo not shown) [Example 491-1a]
< 0.1 µM | CNCC(O)COc1cccc(-c2nc(-c3csnc3C)cc(N(C)C3CCOCC3)n2)c1 (stereo not shown) [Example 493-1a]
< 0.1 µM | CNCC(O)COc1cccc(-c2nc(-c3scnc3C)cc(N(C)C3CCOCC3)n2)c1 (stereo not shown) [Example 495-1a]
< 0.1 µM | CNCC(O)COc1cccc(-c2nc(-c3ccnc(C#N)c3)cc(N(C)C3CCOCC3)n2)c1 (stereo not shown) [Example 498-1a]
< 0.1 µM | CNCC(O)COc1cccc(-c2nc(-c3ccc(S(C)(=O)=O)cc3)cc(N(C)C3CCOCC3)n2)c1 (stereo not shown) [Example 499-1a]
< 0.1 µM | CNCC(O)COc1cccc(-c2nc(-c3cn(C)cn3)cc(N(C)C3CCOCC3)n2)c1 (stereo not shown) [Example 501-1a]
< 0.1 µM | CNCC(O)COc1cccc(-c2nc(-c3ccnc(C(C)(C)O)c3)cc(N(C)C3CCOCC3)n2)c1 (stereo not shown) [Example 503-1a]
< 0.1 µM | CNCC(O)COc1cccc(-c2nc(-c3c[nH]c4ncncc34)cc(N(C)C3CCOCC3)n2)c1 (stereo not shown) [Example 504-1a]
< 0.1 µM | CNC[C@@H](O)COc1cccc(-c2nc(-c3cnc4cnccn34)cc(N(C)C3CCOCC3)n2)c1 [Example 507-1a]
< 0.1 µM | CNCC(O)COc1cccc(-c2nc(-c3ccnc(C(=O)NC)c3)cc(N(C)C3CCOCC3)n2)c1 (stereo not shown) [Example 510-1a]
< 0.1 µM | CNCC(O)COc1cccc(-c2nc(-c3cnc4c(C(=O)N(C)C)cnn4c3)cc(N(C)C3CCOCC3)n2)c1 (stereo not shown) [Example 514-1a]
< 0.1 µM | CNCC(O)COc1cccc(-c2nc(-c3cnn(CC(C)C)c3)cc(N(C)C3CCOCC3)n2)c1 (stereo not shown) [Example 516-1a]
< 0.1 µM | CNCC(O)COc1cccc(-c2nc(-c3cnc(C)n3C)cc(N(C)C3CCOCC3)n2)c1 (stereo not shown) [Example 517-1a]
< 0.1 µM | CNCC(O)COc1cccc(-c2nc(-c3nc(C)cn3C)cc(N(C)C3CCOCC3)n2)c1 (stereo not shown) [Example 519-1a]
< 0.1 µM | CNCC(O)COc1cccc(-c2nc(-c3nc(C)c[nH]3)cc(N(C)C3CCOCC3)n2)c1 (stereo not shown) [Example 521-1a]
< 0.1 µM | CNCC(O)COc1cccc(-c2nc(-c3cncnc3)cc(N(C)C3CCOCC3)n2)c1 (stereo not shown) [Example 525-1a]
< 0.1 µM | CNCC(O)COc1cccc(-c2nc(-c3cn(C)c(C)n3)cc(N(C)C3CCOCC3)n2)c1 (stereo not shown) [Example 529-1a]
< 0.1 µM | CNCC(O)COc1cccc(-c2nc(-c3cnc4ncnn4c3)cc(N(C)C3CCOCC3)n2)c1 (stereo not shown) [Example 536-1a]
< 0.1 µM | CNCC(O)COc1cccc(-c2nc(-c3ccnc(OC)c3)cc(N(C)C3CCOCC3)n2)c1 (stereo not shown) [Example 541-1a]
< 0.1 µM | CNCC(O)COc1cccc(-c2nc(N(C)C3CCOCC3)cc(-n3cccn3)n2)c1 (stereo not shown) [Example 542-1a]
< 0.1 µM | CNCC(O)COc1cccc(-c2nc(-c3cnc4ccnn4c3)cc(N(C)C3CCOCC3)n2)c1 (stereo not shown) [Example 564-1a]
